Converted amounts (≈) assume the structure as drawn.

This assay deals with T1, collagenase.
T1 construct: gene colG
Put plainly: fluorometric collagenase inhibitor screening kit. Type of assay: biochemical. The note with it: 15 min preincubation at 25 °C; kinetic read 60 min at 37 °C; ex 490 / em 520 nm.

By IC50 is commonly meant the concentration that gives 50% inhibition. Low readings indicate inhibition by little substance, high ones a need for much substance. As to `Cc1cnc(NC(=O)C2=C(O)c3ccccc3S(=O)(=O)N2C)s1` [Meloxicam], the IC50 came out at 38.48 µg/mL (≈ 110 µM).

The values above are taken from PMC10708113, “Comparative Study of Essential Oils from Different Organs of Syzygium cumini (Pamposia) Based on GC/MS Chemical Profiling and In Vitro Antiaging Activity” (Molecules, 2023).
